Calls of active or inactive are those of the source. The rule behind the calls is not given here.
Columns and labels:
Type in all cases: functional
Pseudomonas oleovorans = assay: Antibacterial activity against Pseudomonas oleovorans MTCC 617 at 10 ug/well after 24 hr by agar well diffusion method; conditions: Ectopseudomonas oleovorans; for zone of inhibition at 10 µg/disc: MTCC 617, 24 h, read-out: DIZ
Pseudomonas aeruginosa [1] = assay: Antibacterial activity against Pseudomonas aeruginosa MTCC 741 at 10 ug/well after 24 hr by agar well diffusion method; conditions: for zone of inhibition at 10 µg/disc: MTCC 741, 24 h, read-out: DIZ
Enterococcus faecalis = assay: Antibacterial activity against Enterococcus faecalis MTCC 439 at 10 ug/well after 24 hr by agar well diffusion method; conditions: for zone of inhibition at 10 µg/disc: MTCC 439, 24 h, read-out: DIZ
Klebsiella pneumoniae = assay: Antibacterial activity against Klebsiella pneumoniae MTCC 109 at 10 ug/well after 24 hr by agar well diffusion method; conditions: for zone of inhibition at 10 µg/disc: MTCC 109, 24 h, read-out: DIZ
Escherichia coli = assay: Antibacterial activity against Escherichia coli MTCC 1652 at 10 ug/well after 24 hr by agar well diffusion method; conditions: for zone of inhibition at 10 µg/disc: MTCC 1652, 24 h, read-out: DIZ
Streptococcus pyogenes [2] = assay: Antibacterial activity against Streptococcus pyogenes MTCC 442 at 10 ug/well after 24 hr by agar well diffusion method; conditions: for zone of inhibition at 10 µg/disc: MTCC 442, 24 h, read-out: DIZ
Bacillus pumilus = assay: Antibacterial activity against Bacillus pumilus MTCC 1640 at 10 ug/well after 24 hr by agar well diffusion method; conditions: for zone of inhibition at 10 µg/disc: MTCC 1640, 24 h, read-out: DIZ
Bacillus cereus = assay: Antibacterial activity against Bacillus cereus MTCC 430 at 10 ug/well after 24 hr by agar well diffusion method; conditions: for zone of inhibition at 10 µg/disc: MTCC 430, 24 h, read-out: DIZ
Bacillus subtilis = assay: Antibacterial activity against Bacillus subtilis MTCC 2397 at 10 ug/well after 24 hr by agar well diffusion method; conditions: for zone of inhibition at 10 µg/disc: MTCC 2397, 24 h, read-out: DIZ
Staphylococcus aureus = assay: Antibacterial activity against Staphylococcus aureus MTCC 737 at 10 ug/well after 24 hr by agar well diffusion method; conditions: for zone of inhibition at 10 µg/disc: MTCC 737, 24 h, read-out: DIZ
Pseudomonas aeruginosa [3] = assay: Antibacterial activity against Pseudomonas aeruginosa MTCC 741 after 24 hr by agar dilution method
Streptococcus pyogenes [4] = assay: Antibacterial activity against Streptococcus pyogenes MTCC 442 after 24 hr by agar dilution method

| Compound | zone of inhibition at 10 µg/disc (Pseudomonas oleovorans) [mm] | zone of inhibition at 10 µg/disc (Pseudomonas aeruginosa [1]) [mm] | zone of inhibition at 10 µg/disc (Enterococcus faecalis) [mm] | zone of inhibition at 10 µg/disc (Klebsiella pneumoniae) [mm] | zone of inhibition at 10 µg/disc (Escherichia coli) [mm] | zone of inhibition at 10 µg/disc (Streptococcus pyogenes [2]) [mm] | zone of inhibition at 10 µg/disc (Bacillus pumilus) [mm] | zone of inhibition at 10 µg/disc (Bacillus cereus) [mm] | zone of inhibition at 10 µg/disc (Bacillus subtilis) [mm] | zone of inhibition at 10 µg/disc (Staphylococcus aureus) [mm] | other results |
| --- | --- | --- | --- | --- | --- | --- | --- | --- | --- | --- | --- |
| COc1ccc(Nc2ccc3c(C(=O)O)cc(-c4ccccc4)nc3c2)cc1 | 5 | 8 | 8 | 3 | 3 | 5 | 3 | 4 | 4 | 2 | – |
| CC1COc2c(N3CCN(C)CC3)c(F)cc3c(=O)c(C(=O)O)cn1c23 (centres undefined) [OFLOXACIN] | 17 | 16 | 16 | 19 | 17 | 17 | 17 | 16 | 17 | 16 | – |
| NC(=S)Nc1ccc2c(C(=O)O)cc(-c3ccccc3)nc2c1 | 7 | 12 | 9 | – | 5 | 5 | 3 | 5 | – | 9 | diameter of the inhibition zone (DIZ) (Klebsiella pneumoniae): inactive; diameter of the inhibition zone (DIZ) (Bacillus subtilis): inactive |
| O=C(O)CNc1ccc2c(C(=O)O)cc(-c3ccccc3)nc2c1 | 8 | 4 | 7 | 5 | 2 | 5 | 2 | 4 | – | – | diameter of the inhibition zone (DIZ) (Bacillus subtilis): inactive; diameter of the inhibition zone (DIZ) (Staphylococcus aureus): inactive |
| NS(=O)(=O)c1ccc(Nc2ccc3c(C(=O)O)cc(-c4ccccc4)nc3c2)cc1 | 11 | 4 | 5 | – | 8 | 5 | 2 | 5 | 5 | 9 | diameter of the inhibition zone (DIZ) (Klebsiella pneumoniae): inactive |
| GENTAMICIN | – | – | – | – | – | – | – | – | – | – | inhibition zone (IZ) (Pseudomonas oleovorans): 19 mm; inhibition zone (IZ) (Pseudomonas aeruginosa [1]): 19 mm; inhibition zone (IZ) (Enterococcus faecalis): 18 mm; inhibition zone (IZ) (Klebsiella pneumoniae): 16 mm; inhibition zone (IZ) (Escherichia coli): 16 mm; inhibition zone (IZ) (Streptococcus pyogenes [2]): 17 mm; inhibition zone (IZ) (Bacillus pumilus): 17 mm; inhibition zone (IZ) (Bacillus cereus): 17 mm; inhibition zone (IZ) (Bacillus subtilis): 19 mm; inhibition zone (IZ) (Staphylococcus aureus): 16 mm |
| O=C(O)c1cc(-c2ccccc2)nc2cc(Nn3cnnc3)ccc12 | 4 | – | 3 | 4 | 3 | – | 2 | 3 | – | 2 | diameter of the inhibition zone (DIZ) (Pseudomonas aeruginosa [1]): inactive; diameter of the inhibition zone (DIZ) (Streptococcus pyogenes [2]): inactive; diameter of the inhibition zone (DIZ) (Bacillus subtilis): inactive |
| O=C(O)c1cc(-c2ccccc2)nc2cc(Nc3ccc([N+](=O)[O-])cc3)ccc12 | 8 | – | 3 | – | 12 | 2 | 11 | 9 | 5 | 7 | diameter of the inhibition zone (DIZ) (Pseudomonas aeruginosa [1]): inactive; diameter of the inhibition zone (DIZ) (Klebsiella pneumoniae): inactive |
| O=C(O)c1cc(-c2ccccc2)nc2cc(Cl)ccc12 | 6 | 2 | 7 | 3 | 7 | 4 | 8 | 4 | 5 | – | diameter of the inhibition zone (DIZ) (Staphylococcus aureus): inactive |
| NC(=O)Nc1ccc2c(C(=O)O)cc(-c3ccccc3)nc2c1 | 9 | 9 | 6 | 6 | 7 | 9 | 6 | 10 | 9 | 9 | – |
| O=C(O)c1cc(-c2ccccc2)nc2cc(Nc3ccccc3)ccc12 | 12 | 4 | 9 | 5 | 10 | 7 | 5 | 10 | 9 | 8 | MIC (Pseudomonas aeruginosa [3]): 9 µg; MIC (Streptococcus pyogenes [4]): 4 µg |
| Cc1ccc(Nc2ccc3c(C(=O)O)cc(-c4ccccc4)nc3c2)cc1 | 8 | 3 | 9 | 3 | 8 | 7 | 9 | 6 | 6 | 5 | – |
| O=C(O)c1cc(-c2ccccc2)nc2cc(N3CCNCC3)ccc12 | 11 | 4 | 7 | 6 | 10 | 7 | 5 | 5 | 2 | 4 | – |
| O=C(O)c1cc(-c2ccccc2)nc2cc(Nc3ccncc3)ccc12 | 4 | 5 | 7 | 4 | 4 | – | 6 | 5 | 5 | 3 | diameter of the inhibition zone (DIZ) (Streptococcus pyogenes [2]): inactive |
| O=C(O)c1cc(-c2ccccc2)nc2cc(Nc3nccs3)ccc12 | 13 | 15 | 12 | 5 | 7 | 13 | 12 | 13 | 9 | 10 | MIC (Pseudomonas aeruginosa [3]): 3 µg; MIC (Streptococcus pyogenes [4]): 5 µg |

From ChEMBL document CHEMBL3046887, “Microwave-irradiated synthesis and antimicrobial activity of 2-phenyl-7-substitutedalkyl/arylaminoquinoline-4-carboxylic acid derivatives” (2010)
